Measured values published in US8853234B2, “Quinolone analogs and methods related thereto” (Senhwa Biosciences, Inc., priority 2007, dated 2014).

What was measured:
[1] = Cassette dosing oral pharmacokinetics in ICR mice; type: in vivo; settings: ICR (IcrTac:ICR), mouse; cassette oral dose 25 mg/kg, female ICR mice, plasma, 0-8 h, none in table
Method: A cassette dosing procedure was utilized to determine pharmaceutical properties of compounds disclosed herein. In this procedure, compounds are selected for each cassette (i.e., cocktail) on the basis that mass spectrometric signals for each compound will not interfere with one another upon mass spectrometric analysis (e.g., will not overlap). The concentration of each compound in the dosing cassette often is about 20 mg/mL to achieve an oral dose level of 25 mg/kg in ICR mice. Aspects of the cassette dosing procedure are described hereafter.
Prepare 0.5 mL of 20 mg/mL dosing solution (in PBS or formulation vehicle) of 12 test compounds. Dilute a dosing solution 20 fold by transferring 10 μL of the stock solution into 190 μL acetonitrile containing 0.1% formic acid to achieve a final concentration of 1 mg/mL. Dilute further a 1 mg/mL solution 1,000 fold by transferring 1 μL of the stock solution into 999 μL acetonitrile containing 0.1% formic acid to achieve a final concentration of 1 μg/mL. Use the 1 μg/mL solution for mass spectrometric method development based on direct infusion. Determine parent/daughter mass spectra of each compound using multiple reaction monitoring (MRM). Compare parent/daughter mass spectra of each compound to assure no cross-reaction interference during LC-MS/MS measurements. Based on MRM mass spectra determine the composition of all cassettes.
Mix 250 μL of four prepared dosing solutions and an oral PK internal standard (20 mg/mL each) according to cassette design to achieve a final concentration of 4 mg/mL. Vortex cassettes rigorously and ultra-sonicate to obtain a clear solution or homogeneous suspension. Use the cassette solutions to dose animals by oral route of administration at 25 mg/kg.
All in vivo experiments follow protocols approved by the Animal Use and Care Committee. Female ICR mice (IcrTac:ICR), 8-10 weeks of age are obtained from Taconic (Hudson, N.Y.). Mice are housed on a 12 h/12 h light/dark cycle with ad libitum access to water and food. After a minimum two week acclimation period, the mice are randomized into groups with a minimum group size of four. The animals used for pharmacokinetic studies have a body-weight range of 25-35 g. A 25 mg/kg (4 mg/ml) dose of a cassette described in Example 1 is orally administered to mice that have been fasted overnight.
After compound administration, serial blood samples are collected via retro-orbital puncture with a capillary tube at various time points (15, 30 minutes and 1, 2, 4, 6 and 8 hours). The samples are transferred to a heparinized 0.5 mL microcentrifuge tube and placed on ice. Plasma is separated by centrifugation and samples are stored at −80° C. until assay.
Dilute a cassette dosing solution (4 mg/mL) four fold by transferring 25 μL of the stock solution into 75 μL of 50% acetonitrile containing 0.1% formic acid to achieve the concentration of 1 mg/mL. Dilute this stock solution further by serial dilutions to make 0.01, 0.1, 1 and 5 μg/mL working standard solutions.
Prepare 500 mL of 0.5 μg/mL solution of bioanalytical internal standard using 100% acetonitrile with 0.1% formic acid. Store the quenching solution in a tightly sealed bottle at 4° C.
Transfer 15 μL of blank mouse plasma to a 96 well plate and precipitate plasma proteins by pipetting of 120 μL of quenching solution to all plasma aliquots. Cover the plate with a matching plate mat and mix well for 30-60 seconds using a vertical multi-tube shaker.
Add 15 μL of the working standard solution of corresponding cassette to quenched plasma and vortex the plate for an additional 30-60 seconds. Then, centrifuge the plate at 4,000 rpm for 10 minutes at 4° C. Without disturbing the plasma protein pellet, transfer 120 μL of the supernatant to a new 96 well plate and dry the sample under nitrogen using a TurboVap® plate evaporator (Caliper Life Sciences; Hopkinton, Mass.). Reconstitute dried residues with 120 μL 20% acetonitrile containing 0.1% formic acid. […]

[2] = Pharmacokinetic evaluation IV bolus and oral (bioavailability) in ICR mice; type: in vivo; settings: mouse, plasma, IV 5 mg/kg and PO 25 mg/kg, read-out: Bioavailability (% F)
Method: The pharmacokinetics properties of drugs are investigated in ICR mice following an intravenous (IV) bolus and oral (PO) doses of drug at 5 mg/kg and 25 mg/kg respectively. Blood samples are collected at predetermined times and the plasma separated. Plasma is separated from the blood samples collected at 5, 15 and 30 minutes and 1, 2, 4, 8 and 24 hours post-dose.
Drug levels are quantified by the LC/MS/MS method described below. Noncompartmental pharmacokinetic analysis is applied for intravenous administration. A linear trapezoidal rule is used to compute AUC(0-24) or AUC(0-8). The terminal t1/2 and C0 are calculated using the last three and the first three data points, respectively
Bioanalysis is performed using a Quattro Micro LC/MS/MS instrument in the MRM detection mode, with an internal standard (IS). Briefly, 15 μL plasma samples are prepared for analysis using protein precipitation with 120 μL of acetonitrile. The supernatants are transferred into a 96 well plate and subjected to LC-MS/MS analysis using a PHENOMENEX® Polar-RP HPLC column. The mobile phases are 10 mM NH4HCO3 in water (Solution-A) and 10 mM NH4HCO3 in methanol (Solution-B). The column is initially equilibrated with 25% Solution-B and followed with 100% Solution B over 5 minutes. The method has a dynamic range from 1 to 10,000 ng/mL. Quantitation of the analytes is performed in the batch mode with two bracketing calibration curves according to the bioanalytical sample list.

Row | Compound | AUC(0-t) [1] | bioavailability [2]
1 | Cn1c2ccccc2n2c3nc(N4CCOCC4)c(F)cc3c(=O)c(C(=O)NCCN3CCCC3)c12 | 2000 ng·h/mL | 
2 | CN1CCCC1CCNC(=O)c1c(=O)c2cc(F)c(N3CCOCC3)nc2n2c3ccccc3n(C)c12 (centres unmarked) | 1190 ng·h/mL | 10.4%
3 | O=C(NCCN1CCCC1)c1c(=O)c2ccc(N3CCOCC3)nc2n2c1sc1ccccc12 | 2150 ng·h/mL | 10.7%
4 | CN1CCCC1CCNC(=O)c1c(=O)c2ccc(N3CCOCC3)nc2n2c1sc1ccccc12 (centres unmarked) | 2590 ng·h/mL | 
5 | Cn1c2ccccc2n2c3nc(N4CCOCC4)ccc3c(=O)c(C(=O)NCCN3CCCC3)c12 | 1260 ng·h/mL | 
6 | CN1CCCC1CCNC(=O)c1cn2c3c(c(N4CCOCC4)c(F)cc3c1=O)Oc1ccccc1-2 (centres unmarked) | 1430 ng·h/mL | 
7 | CN1CCCC1CCNC(=O)c1c(=O)c2cc(F)c(N3CCOCC3)nc2n2c1sc1ccccc12 (centres unmarked) | 3810 ng·h/mL | 22.4%
8 | O=C(NCCN1CCCC1)c1c(=O)c2cc(F)c(N3CCOCC3)nc2n2c1sc1ccccc12 | 2260 ng·h/mL | 
9 | CN1CCN(C(=O)c2c(=O)c3cc(F)c(N4CCOCC4)nc3n3c2sc2ccccc23)CC1 | 6160 ng·h/mL | 30.3%
10 | O=C(NCCN1CCC(O)C1)c1c(=O)c2cc(F)c(N3CCOCC3)nc2n2c1sc1ccccc12 (centres unmarked) | 1090 ng·h/mL | 
11 | CN1CCC(N(C)C(=O)c2c(=O)c3cc(F)c(N4CCOCC4)nc3n3c2sc2ccccc23)C1 (centres unmarked) | 2130 ng·h/mL | 
12 | O=C(NCCNCC1CCCO1)c1c(=O)c2ccc(N3CCOCC3)nc2n2c1sc1ccccc12 (centres unmarked) | 1900 ng·h/mL | 2%
13 | O=C(NCCN1CC=CC1)c1c(=O)c2ccc(N3CCOCC3)nc2n2c1sc1ccccc12 | 7940 ng·h/mL | 27.5%
14 | Cn1cncc1CNC(=O)c1c(=O)c2ccc(N3CCOCC3)nc2n2c1sc1ccccc12 | 2920 ng·h/mL | 12.4%
15 | O=C(c1c(=O)c2ccc(N3CCOCC3)nc2n2c1sc1ccccc12)N1CCN(c2ncccn2)CC1 | 15300 ng·h/mL | 31.1%
16 | O=C(c1c(=O)c2ccc(N3CCOCC3)nc2n2c1sc1ccccc12)N1CCN(c2ccccn2)CC1 | 1740 ng·h/mL | 
17 | O=C(NCCN1CC=CC1)c1cn2c3c(c(N4CCC(c5cnccn5)C4)c(F)cc3c1=O)Oc1cc3ccccc3cc1-2 (centres unmarked) | 8040 ng·h/mL | 
18 | O=C(NCCN1CC=CCC1)c1c(=O)c2ccc(N3CCOCC3)nc2n2c1sc1ccccc12 | 632 ng·h/mL | 
19 | O=C(NCCN1CC=CC1)c1c(=O)c2cc(F)c(N3CCOCC3)nc2n2c1sc1ccccc12 | 2000 ng·h/mL | 
20 | O=C(NCCNCCF)c1c(=O)c2ccc(N3CCOCC3)nc2n2c1sc1ccccc12 | 5020 ng·h/mL | 
21 | O=C(NCCNCC(F)(F)F)c1c(=O)c2ccc(N3CCOCC3)nc2n2c1sc1ccccc12 | 9450 ng·h/mL | 
22 | O=C(NCCNCCF)c1c(=O)c2cc(F)c(N3CCOCC3)nc2n2c1sc1ccccc12 | 2220 ng·h/mL | 

Row | Compound | AUC(0-t) [1] | bioavailability [2]
23 | O=C(NCCn1ccnc1)c1c(=O)c2ccc(N3CCOCC3)nc2n2c1sc1ccccc12 | 4030 ng·h/mL | 
24 | Cn1ccnc1CNC(=O)c1c(=O)c2ccc(N3CCOCC3)nc2n2c1sc1ccccc12 | 5490 ng·h/mL | 17.9%
25 | O=C(NCCN1CCOCC1)c1c(=O)c2ccc(N3CCOCC3)nc2n2c1sc1ccccc12 | 2980 ng·h/mL | 
26 | Cn1ccnc1CNC(=O)c1c(=O)c2cc(F)c(N3CCOCC3)nc2n2c1sc1ccccc12 | 20300 ng·h/mL | 15.8%
27 | Cc1nccn1CCNC(=O)c1c(=O)c2ccc(N3CCOCC3)nc2n2c1sc1ccccc12 | 4380 ng·h/mL | 
28 | O=C(NNC1=NCCN1)c1c(=O)c2cc(F)c(N3CCOCC3)nc2n2c1sc1ccccc12 | 2430 ng·h/mL | 0.1%
29 | Cn1c2ccccc2n2c3nc(N4CCOCC4)c(F)cc3c(=O)c(C(=O)N3CCN4CCCC4C3)c12 (centres unmarked) | 3210 ng·h/mL | 
30 | CN1CCN(c2ccc3c(=O)c(C(=O)NCc4ccccn4)c4sc5ccccc5n4c3n2)CC1 | 51100 ng·h/mL | 41.4%
31 | O=C(NCCNC1CC1)c1c(=O)c2cc(F)c(N3CCOCC3)nc2n2c1sc1ccccc12 | 5150 ng·h/mL | 
32 | CN1CCCCC1CNC(=O)c1c(=O)c2ccc(N3CCOCC3)nc2n2c1sc1ccccc12 (centres unmarked) | 1050 ng·h/mL | 
33 | CN1CCCN(C(=O)c2c(=O)c3cc(F)c(N4CCOCC4)nc3n3c2sc2ccccc23)CC1 | 4230 ng·h/mL | 
34 | Cn1ccnc1CNC(=O)c1c(=O)c2cc(N3CCOCC3)nnc2n2c1sc1ccccc12 | 3780 ng·h/mL | 
35 | CN1CCCC(NC(=O)c2c(=O)c3cc(F)c(N4CCOCC4)nc3n3c2sc2ccccc23)C1 (centres unmarked) | 1030 ng·h/mL | 
36 | O=C(NCC1CCCN1)c1c(=O)c2cc(F)c(N3CCOCC3)nc2n2c1sc1ccccc12 (centres unmarked) | 1050 ng·h/mL | 
37 | CN1CCCCC1CNc1ccc2c(=O)c(C(=O)NCc3ccncc3)c3sc4ccccc4n3c2n1 (centres unmarked) | 790 ng·h/mL | 
38 | CN1CCCC1CNC(=O)c1c(=O)c2cc(F)c(N3CCOCC3)nc2n2c1sc1ccccc12 (centres unmarked) | 3960 ng·h/mL | 
39 | CN1CCN(c2nc3c(cc2F)c(=O)c(C(=O)NCc2cn(C)cn2)c2sc4ccccc4n23)CC1 | 45100 ng·h/mL | 
40 | O=C(NCCNC1CCC1)c1c(=O)c2ccc(N3CCOCC3)nc2n2c1sc1ccccc12 | 3180 ng·h/mL | 
41 | CN1CCN(c2ccc3c(=O)c(C(=O)NC4CC4)c4n(C)c5ccccc5n4c3n2)CC1 | 5200 ng·h/mL | 
42 | O=C(NCCNC1CC1)c1c(=O)c2ccc(N3CCOCC3)nc2n2c1sc1ccccc12 [drawing 604] | 5370 ng·h/mL | 43.3%
43 | Cc1cnc(CNC(=O)c2c(=O)c3ccc(N4CCN(C)CC4)nc3n3c2sc2ccccc23)cn1 [drawing 619] | 166000 ng·h/mL | 
